In PMC6331910, “The Curcumin Analogue 1,5-Bis(2-hydroxyphenyl)-1,4-pentadiene-3-one Induces Apoptosis and Downregulates E6 and E7 Oncogene Expression in HPV16 and HPV18-Infected Cervical Cancer Cells” (Molecules, 2015):

Assays:
Type in all cases: cell-based, human
[1] = tested on: CaSki; assay: MTT anti-proliferative (time-dependent) assay, 24, 48 and 72 h; conditions: for cell viability: 3.1–100 μM
Description: (§1) HeLa, CaSki and MRC9 cells were plated in triplicate wells in 96-well flat-bottomed tissue culture plates (Nunc, Roskilde, Denmark) with 10^5 cells per mL in 100 μL culture media with working concentrations of diarylpentanoid treatment ranging from 1.6 to 100 μM. Control-treated wells contained cells incubated in media with equal volumes of DMSO (0.2%). Cells were treated for 72 h for dose-dependent cytotoxicity assays and at 24, 48 and 72 h for anti-proliferative (time-dependent) assays. In order to assess cell viability and anti-proliferative activity after diarylpentanoid treatment, the colorimetric 3-(4,5-dimethylthiazol-2-yl)-2,5-diphenyltetrazolium bromide (MTT) assay was performed as previously described with modifications. The media was aspirated and cells were incubated in 100 µL complete medium with 0.5 mg/mL MTT solution for 4 h in the dark to allow metabolism of MTT by cellular mitochondrial dehydrogenases. The excess MTT was aspirated and the formazan crystals formed were dissolved by the addition of 100 µL of DMSO. The absorbance of dark blue formazan was read at 570/650 nm wavelengths using a microplate reader (Bio-Rad Benchmark Plus Microplate Spectrophotometer, Hercules, CA, USA). Triplicate absorbance values were averaged and the effect of the compounds on growth inhibition was assessed as percentage cell viability as follows: (1) Percentage cell viability =Absorbance of Test − Absorbance of Blank (media only)/Absorbance of Control − Absorbance of Blank (media only) × 100 where, absorbance = optical density of sample, O.D.; control = untreated sample; test = treated sample.
(§2) An independent set of vehicle-treated (DMSO only) controls were included in the anti-proliferative assays to assess the proliferation of untreated cancer cells over 24, 48 and 72 h. As such, the cell viability at 24 h was used as a baseline to measure proliferation rate at 48 and 72 h. (2) Percentage cell viability = […]/Absorbance of Control (24 h) × Absorbance of Blank (media only) × 100

[2] = tested on: HeLa; assay: as above
Description: as §1, §2

[3] = tested on: HeLa; assay: Acridine orange/ethidium bromide double staining, quantification of viable, apoptotic and necrotic cells
Description: HeLa, 9 μM] at various time points. Each experiment included a set of untreated control cells (Media with DMSO alone). Double staining with acridine orange and ethidium bromide and consequently fluorescent microscopic analysis is an established method by which to distinguish between viable, necrotic and apoptotic cells. […] Following treatment, the cells were pelleted, washed twice in 1× PBS and resuspended in 50 μL 1× PBS. 1 μL of dye mixture (1 part 100 μg/mL acridine orange in PBS and 1 part 100 μg/mL ethidium bromide in PBS) was added to 10 μL of cell suspension and the entire volume was placed on a clean microscope slide. Cells were examined by fluorescence microscopy using the fluorescein filter (BX41, Olympus, Melville, NY, USA) and were distinguished via the morphological aspect of chromatin condensation in stained nuclei as previously established. A minimum of 200 cells were counted per sample and the percentage of cells from each population (viable, live apoptotic, dead apoptotic, necrotic) was calculated.

[4] = tested on: caspase-3 activity in CaSki cells; assay: Caspase-3 colorimetric assay (relative caspase-3 activity)
Description: (§3) HeLa, 9 μM] at various time points. Each experiment included a set of untreated control cells (Media with DMSO alone). Caspase-3 activity was assessed using the Caspase-3 Colorimetric Assay Kit (Sigma Aldrich), following the manufacturer’s instructions. […] Following treatment, the cells were washed in PBS and suspended in a lysis buffer (50 mM HEPES pH 7.4, 5 mM CHAPS, 5 mM DTT) for 25 min at a concentration of 10^7 cells per 100 μL of buffer. Lysed cells were centrifuged at 16,000× g, 4 °C for 30 min. Lysate protein concentration was determined using the Cayman Chemical Protein Determination (Cayman Chemical Company, Ann Arbor, MI, USA) kit which is a colorimetric method for total protein quantification based on the Bradford method. In short, 100 μL of protein samples was diluted in 96-well plates and 100 μL of the assay reagent was added to the samples, incubated for 5 min and the absorbance measured at 595 nm. Protein concentrations were calculated from a regression line fit to a series of standard protein dilutions assays on the same plate as the unknown samples. […] The effect of Ac-DEVD-CHO, a caspase-3 inhibitor, on caspase-3 activity was studied simultaneously. As per the manufacturer’s instructions, 10 μL of the inhibitor Ac-DEVD-CHO (200 μM) was added to a well containing the assay buffer, followed immediately by the cell lysate and 10 μL of the substrate Ac-DEVD-pNA (2 mM). Caspase-3 activity was assessed by measuring the absorbance released by the pNA molecule at 405 nm using a Bio-Rad Benchmark Plus Microplate Spectrophotometer. Caspase-3 activity was expressed by measuring the ratio of the mean caspase-3 activity of treated cells relative to untreated cells.

[5] = tested on: caspase-3 activity in HeLa cells; assay: as above; conditions: all time points and doses (3, 6, 9 μM)
Description: as §3

[6] = tested on: CaSki; assay: DNA fragmentation, Cell Death Detection ELISA (cytoplasmic nucleosomal enrichment)
Description: HeLa, 9 μM] at various time points. Each experiment included a set of untreated control cells (Media with DMSO alone). The enrichment of the cytoplasm of treated cells by mono- and oligonucleosomes are used to study whether enhanced DNA fragmentation is induced by diarylpentanoid treatment. This determination was made following the manufacturer’s instructions of the Cell Death Detection ELISA^PLUS kit (Roche Diagnostics, Mannheim, Germany). […] Following treatment, the cells were incubated in lysis buffer and centrifuged, after which the supernatant was transferred to streptavidin coated plates and shaken with the provided immunoreagent (mixture of anti-DNA-POD and anti-histone biotin) for 2 h. […] Enrichment factor, defined as the release of mono- and oligonucleosomes into the cytoplasm, was calculated using the formula below: (4) Enrichment factor =Absorbance of Test − Absorbance of Blank (substrate only)/Absorbance of Control − Absorbance of Blank (substrate only)

## O=C(C=Cc1ccccc1O)C=Cc1ccccc1O [MS17, 1,5-bis(2-hydroxyphenyl)-1,4-pentadiene-3-one]
[1]
  dosage from which reduction in cell viability was significantly higher at 48 and 72 h than at 24 h: 3.1 µM
[1]; 12.5 μM onwards, 24 h
  cell growth: 43%
[1]; 48 h
  cell viability: 22%
[1]; 72 h
  cell viability: 9%
[2]
  dosage from which reduction in cell viability was significantly higher at 48 and 72 h than at 24 h: 6.3 µM
[2]; 6.3 μM onwards, 24 h
  cell viability: 34%
[2]; 6.3 μM onwards, 48 h
  cell growth: 12%
[2]; 6.3 μM onwards, 72 h
  cell growth: 5%
[3]; 3 µM, 24 h
  early apoptotic cells: 40%
[3]; 3 µM, 48 h
  early apoptotic cells: 50%
[3]; 3 µM, throughout the treatment period (24 and 48 h)
  necrotic cells: approximately 10%
[3]; 6 µM, 24 h
  early apoptotic cells: 60%
[3]; 6 µM, 48 h
  early apoptotic cells: 30%
[3]; 6 µM, throughout the treatment period (24 and 48 h)
  necrotic cells: approximately 25%
[3]; 9 µM, 24 h
  early apoptotic cells: 50%
  necrotic cells: 40%
[3]; 9 µM, 48 h
  early apoptotic cells: 10%
  necrotic cells: 50%
[3]; 24 h, end of dose-dependent decrease (3–9 µM)
  viable cells: less than 10%
[3]; 48 h, with increasing treatment dose (3–9 µM)
  viable cells: less than 5%
[3]; all treatment doses, 24 h
  late apoptotic cells: ≤ 10%
[4]; 2 μM
  relative caspase-3 activity: low caspase-3 activity
[4]; 4 μM, 48 h
  relative caspase-3 activity: increased activity
[4]; 6 μM, 24 h, treated over untreated
  relative caspase-3 activity: threefold increase
[5]
  relative caspase-3 activity: no significant differences
[6]; 4 μM, 24 h, vs untreated
  increase in nucleosome enrichment: 5 fold
[6]; 48 h
  enrichment factor: no significant difference between doses
[6]; 72 h
  enrichment factor: no significant reduction
